Reference: US5422352A, “Slimming pharmaceutical composition” (Nycomed Dak A/S, priority 1989, dated 1995)

Key:
Format in all cases: in vivo, human
[1] = laboratory methods: fasting serum glucose, triglycerides, cholesterol in obese patients (Example 5)
Method: Blood and urine samples for laboratory tests were taken before entry, and after 12 and 24 weeks.
Metabolic factors: In order to evaluate changes in the glucose and lipid metabolism of the patients during the study, triglyceride acid (TGA), cholesterol and fasting glucose were analyzed.
All clinical-chemical analyses apart from TGA and test strips for urine, were carried out at Department of Clinical Chemistry, Hvidovre Hospital, in accordance with their routine methods and assays, including the department's running quality control. The methods and the assays are routine procedures and are well-documented (7,40-48). TGA was analyzed and test strips for urine assessed at the Department of Internal Medicine, Division of Endocrinology, Hvidovre Hospital's own laboratory following the same routine procedures as above (26).
The mean difference of blood pressure, heart rate and laboratory data from the initial values (week 0) at week 12 and at week 24 was compared to initial values for each treatment group by Students' one sample t-test (SAS). Comparison of the treatment groups at a particular visit was done by one-way analysis of variance (SAS.GLM). The difference from initial values was used in order to prevent chance events influencing the results. Patients with high values, for instance, who dropped out would thus influence the mean value at the next control, without a real difference being present.

[2] = safety evaluation in healthy volunteers: side effects, blood pressure, heart rate (Example 2); settings: 400 mg caffeine
Method: Arterial blood pressure was measured in the right arm by a sphygmomanometer a.m. Riva-Rocci, and heart rate was determined by palpation of the peripheral heart rate in the ipsilateral radial artery. These measurements were performed after each sampling of blood.
A "Trimline" apparatus manufactured by PyMaH (Copenhagen) was used to measure the arterial blood pressure. A cuff 12-14 cm in width was employed. […] The diastolic blood pressure was determined as the manometer pressure when the Korotkoff sound quality changes from tapping to muffled.
At the end of each study comprising oral administration of the actual test substance, subjective feelings of side-effects were assessed by questioning the experimental subjects.

[3] = thermogenic effect: energy expenditure in healthy volunteers by indirect calorimetry (Example 2); settings: for Mean energy expenditure during 3 hours: oral single dose, not placebo-corrected; for Energy expenditure greater than placebo: mean±SE, minimum figure; for thermogenic effect (in words): human, in vivo
Method: The study was conducted in two parts. The first part was designed as a placebo-controlled, double-blind trial on the effect of 3 different doses of caffeine, 3 different doses of ephedrine and 2 placebo samples. The order of the tests were not entirely randomized, but organized in a sequence that allowed testing for a carry-over effect.
6 healthy volunteers of normal weight (3 of each sex) aged between 20 and 32 were included after informed consent was obtained. The average age of the 6 volunteers was 25 (±1) years, height, 179 (±11) cm; body weight, 70 (±13) kg; percentage of overweight, -1.7 (±8.3) % and body fat, 13 (±3) kg. The numbers in parenthesis are the standard deviation. The percentages of overweight was calculated from the individual body weight (IBW) using the midpoint of the medium frame (MMF) given in the Metropolitan Life Insurance Company tables of desirable weights (1): [formula]
A. Treatment with ephedrine comprising capsules with 10 mg, 20 mg or 40 mg of ephedrine hydrochloride, respectively.
B. Treatment with caffeine comprising capsules with 100 mg, 200 mg or 400 mg of caffeine, respectively. […]
The capsules were administered orally as single doses and swallowed with 300 ml of tap water (20° C.).
All blood samples for determination of substrate, metabolite and hormone concentrations were collected form the antecubital vein. Blood samples were taken at -30, 0, 30, 60, 90, 120, 150 and 180 minutes relative to the capsule intake (time 0). The subjects breathed through a low-resistance Scuba one-way mouthpiece. After about 10 minutes of adaptation, expiratory gas was collected in Douglas bags for 10 minute periods. Gas collection was made after each blood sampling.
Energy expenditure was measured by indirect calorimetry. Expiratory gas was continuously analyzed for the content of oxygen and carbon dioxide with a Godart Rapox Oxygenmeter and a Beckman LB-1 Medical Gas Analyzer. Respiratory steady state was assumed to be present, when the end-expiratory carbon dioxide fraction was constant. Expiratory gas was collected in Douglas bags and analyzed for the content of oxygen and carbon dioxide with Radiometer gas-electrodes connected to an acid-base analyzer (PHM 71, Copenhagen, Denmark), and the volume of expiration gas was measured with a gas meter. […] The standard gasses were analyzed with a Scholander microtechnique with a measuring error on gas fraction being <0.0005%, i.e. the error on measurement of expired gas being within ±0.1-0.2% (19). […] A fixed protein catabolism was assumed, since the error on calculating the energy expenditure by omitting the exact correction from urinary nitrogen was negligible (20). The energy expenditure was calculated taking de novo lipogenesis into account (21).
The responses to a test substance were estimated separately for each subject as the difference between the integrated numerical area of the response curve (by a trapezoidal approach) and the rectangular area determined by the basal values. To estimate the predictive, theoretical effect of combinations of ephedrine and caffeine, the single dose responses were added after subtracting the average placebo response. This calculation was performed separately for each subject before statistical analysis. A two-way analysis of variance for randomized blocks was performed (28) to test differences between experimental periods within the same experiment and to test differences between the responses to different stimuli (test substances). Post-hoc testing was applied to compare two means (28).

[4] = weight reducing effect in obese patients, 24 weeks, double blind (Example 5)
Method: The study was designed as a double blind, randomised, parallel study with 4 treatment groups in a 2×2 factorial design.
All patients were treated with the trial medication and prescribed a 4.2 MJ/day diet for 24 weeks.
B. Ephedrine group: Ephedrine tablets containing 20 mg ephedrine hydrochloride.
C. Caffeine group: Caffeine tablets containing 200 mg caffeine.
The patients were prescribed 1 tablet 3 times daily one hour before meals together with a 4.2 MJ/day diet consisting of NUPO® protein nutrition powder (33) (1.6 MJ/day) and free additional choice of food (2.6 MJ/day) for 24 weeks.
The patients were weighed on a decimal scale by dietitians at each visit. A Seca electronic scale (model 707) was used. The weighing limit was 200 kg, with 100 g graduations. The scale was calibrated every week.
The statistical analysis of weight loss was based on the logarithm of the initial body weight minus logarithm of the body weight at the actual visit.
As the data was logarithmically transformed as expressed above, a negative value corresponds to a supra-additive effect. Nil corresponds to additive effect and a positive value corresponds to a sub-additive effect.

[5] = week 12, difference from initial
[6] = week 24, difference from initial

Structure (SMILES): Cn1c(=O)c2c(ncn2C)n(C)c1=O [Caffeine, caffeine]
- Mean difference in fasting serum glucose [1, 5]: -0.18 mmol/L
- Mean difference in serum triglycerides [1, 5]: -0.11 mmol/L
- Mean difference in fasting serum cholesterol [1, 6]: -0.28 mmol/L
- Mean difference in fasting serum glucose [1, 6]: -0.42 mmol/L
- Mean difference in serum triglycerides [1, 6]: -0.32 mmol/L
- side effects (in words) [2]: The incidence of side effects after administration of the active compounds and placebo, respectively, was not significant, except for caffeine 400 mg (p<0.01)
- Energy expenditure/(placebo value) ([3]; 100 mg caffeine): 2.5
- Mean energy expenditure during 3 hours ([3]; 100 mg caffeine): 15.4 kcal/3 h
- Energy expenditure greater than placebo ([3]; 100 mg caffeine): 9.2±5.7 kcal/3 h
- Energy expenditure/(placebo value) ([3]; 200 mg caffeine): 2.2
- Mean energy expenditure during 3 hours ([3]; 200 mg caffeine): 13.4 kcal/3 h
- Energy expenditure greater than placebo ([3]; 200 mg caffeine): 7.2±6.0 kcal/3 h
- Energy expenditure/(placebo value) ([3]; 400 mg caffeine): 6.2
- Mean energy expenditure during 3 hours ([3]; 400 mg caffeine): 38.6 kcal/3 h
- Energy expenditure greater than placebo ([3]; 400 mg caffeine): 32.4±8.2 kcal/3 h
- thermogenic effect (in words) [3]: a significant relation between caffeine dose and thermogenic response (energy expenditure)
- thermogenic effect (in words) ([3]; listed as caffeine): possess thermogenic activity
- Average weight loss of the whole group ([4]; 24 weeks): 11.7 kg
- Weight loss of one strongly deviant patient ([4]; 24 weeks, excluded from analysis): 42.6 kg
- Relative body weight ([4]; week 4, 1 tablet 3 times daily, 4.2 MJ/day diet): 95.5%
- Relative body weight ([4]; week 8): 93.0%
- Relative body weight ([4]; week 12): 90.4%
- Relative body weight ([4]; week 16): 89.3%
- Relative body weight ([4]; week 20): 88.0%
- Relative body weight ([4]; week 24): 87.6%
